Experimental data: the supplement of paper PMC10307832

How the values were obtained:
Experiment in all cases: relative viability (nuclei count vs DMSO), 5 days (fraction); higher = more cells survive
[1] = compound: C1CC2=C(C1)C=C(C=C2)OC3=NC(=C4C(=N3)N(C=N4)CC5=CC=C(C=C5)C6=CC=CC=C6)N[C@@H](CC7=CC=CC=C7)CO [QS11] + Cc1nc(NC(=O)N2CCC[C@H]2C(N)=O)sc1-c1ccnc(C(C)(C)C(F)(F)F)c1 [Alpelisib] (partner 2 µM)
Summary of the method: (§1)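 Relative viability equals treated-well nuclei counts divided by vehicle-well nuclei counts. Counts came from 4× images of lung cancer cell lines grown in 1536-well plates for 5 days after pin-tool dosing on the day after seeding. Dosing used one drug alone or a fixed anchor-drug dose plus five library-drug doses (not always all listed) in √10 steps, and values are medians of duplicate plates.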

[2] = compound: CC1=C(C=C(C=C1)NC(=O)C2=CC(=CC=C2)C(C)(C)C#N)NC3=CC4=C(C=C3)N=CN(C4=O)C [AZ628] + Cc1cc(Nc2cc(N3CCN(C)CC3)nc(Sc3ccc(NC(=O)C4CC4)cc3)n2)n[nH]1 [Tozasertib] (partner 0.1 µM)
Summary of the method: as §1

[3] = compound: C[As](C)SC[C@H](NC(=O)CC[C@H](N)C(=O)O)C(=O)NCC(=O)O [Darinaparsin] + CC1(C)CCC(c2ccc(Cl)cc2)=C(CN2CCN(c3ccc(C(=O)NS(=O)(=O)c4ccc(N[C@H](CCN5CCOCC5)CSc5ccccc5)c(S(=O)(=O)C(F)(F)F)c4)cc3)CC2)C1 [Navitoclax] (partner 0.5 µM)
Summary of the method: as §1

[4] = compound: C[As](C)SC[C@H](NC(=O)CC[C@H](N)C(=O)O)C(=O)NCC(=O)O [Darinaparsin] + NC(=O)Nc1cc(-c2cccc(F)c2)sc1C(=O)N[C@H]1CCCNC1 [AZD7762] (partner 0.2 µM)
Summary of the method: as §1

Cell Line	relative viability ([1]; first compound 0.08 µM)	relative viability ([1]; first compound 0.253 µM)	relative viability ([1]; first compound 0.8 µM)	relative viability ([1]; first compound 2.53 µM)	relative viability ([1]; first compound 8 µM)	relative viability ([2]; first compound 0.08 µM)	relative viability ([2]; first compound 0.253 µM)	relative viability ([2]; first compound 0.8 µM)	relative viability ([2]; first compound 2.53 µM)	relative viability ([2]; first compound 8 µM)	relative viability ([3]; first compound 0.08 µM)	relative viability ([3]; first compound 0.8 µM)	relative viability ([3]; first compound 2.53 µM)	relative viability ([3]; first compound 8 µM)	relative viability ([4]; first compound 0.08 µM)	relative viability ([4]; first compound 0.8 µM)	relative viability ([4]; first compound 2.53 µM)	relative viability ([4]; first compound 8 µM)
NCI-H1651	1.06	1.1	0.822	0.896	0.713	0.726	0.656	0.579	0.653	0.43	1.11	1.01	0.863	0.999	0.507	0.43	0.361	0.553
LK-2	1.01	1.15	1.21	0.868	1.59	0.166	0.167	0.17	0.173	0.165	0.968	0.709	0.746	1.07	0.482		0.335	0.581
NCI-H1734	0.681	0.719	0.697	0.581	0.65	0.258	0.267	0.196	0.243	0.197	1.07	0.947	0.806	1.11	0.72	0.529	0.549	0.664
NCI-H23	0.647	0.638	0.557	0.508	0.69	0.286	0.263	0.323	0.26	0.213	1.09	0.917	0.963	1.02	0.226	0.229	0.23	0.247
NCI-H647	1.24	1.25	1.02	1.08	0.862	0.293	0.262	0.296	0.269	0.146	1.42	1.09	0.981	1.04	0.81	0.572	0.375	0.534
NCI-H1915	1.06	1.16		1.06	0.999	0.429	0.412	0.377	0.309	0.206	0.88	0.82	0.771	0.812	0.768	0.738	0.674	0.729
201T	1.02	1.07	0.92	1.08	0.949	0.939	0.861	1.04	0.899	0.89	1.21	1.15	1.19	1.12	0.707	0.669	0.527	0.658
NCI-H3122	0.879	1	0.745	1.12	0.839	0.392	0.339	0.345	0.254	0.189	1.11	1.08	1.06	1.11	1.14	1	0.937	1.34
NCI-H2170	0.785	0.907	0.833	0.791	1.16	0.823	0.741	0.693	0.852	0.667	0.615	0.524	0.559	0.69	0.946	0.916	0.852	1.11
HCC-78	0.411	0.31	0.401	0.43	0.321	0.445	0.383	0.463	0.346	0.465	0.841	0.729	0.842	0.84	0.587	0.706	0.58	0.699
HARA	0.691	0.944		0.872	0.917	0.144	0.122	0.111	0.0923	0.0666	1.39	1.07	1.08	1.37	0.417		0.335	0.371
NCI-H2347	1.11	1.06	0.929	0.918	1.21	0.491	0.514	0.555	0.514	0.303	0.77	0.777	0.748	0.707	0.668	0.583	0.734	0.871
NCI-H1437	1.1	1.13	0.834	0.9	0.879	0.402	0.408	0.428	0.418	0.375	1.54	1.1	0.962	1.33	1.2	1.2	1.03	1.26
LXF-289	1.07	1.05	0.764	0.906	0.85	0.199	0.213	0.195	0.174	0.155	1	0.975	0.809	1.05	1.15	1.19	0.931	1.14
LU99A	0.486	0.528	0.596	0.367	0.405	0.272	0.242	0.265	0.231	0.257	0.77	0.886	0.777	0.944	0.455	0.273	0.328	0.383
NCI-H1666	0.917	1.03	0.708	0.587	0.382	0.605	0.567	0.565	0.551	0.479	1.09	0.938	1.23	1.09	0.706	0.897	0.915	0.873
LOU-NH91	0.687	0.636		0.691	0.697	0.568	0.7	0.7	0.629	0.573	0.699	0.701	0.642	0.604	0.808	0.745	0.719	0.775

Cell Line	relative viability ([1]; first compound 0.08 µM)	relative viability ([1]; first compound 0.253 µM)	relative viability ([1]; first compound 0.8 µM)	relative viability ([1]; first compound 2.53 µM)	relative viability ([1]; first compound 8 µM)	relative viability ([2]; first compound 0.08 µM)	relative viability ([2]; first compound 0.253 µM)	relative viability ([2]; first compound 0.8 µM)	relative viability ([2]; first compound 2.53 µM)	relative viability ([2]; first compound 8 µM)	relative viability ([3]; first compound 0.08 µM)	relative viability ([3]; first compound 0.8 µM)	relative viability ([3]; first compound 2.53 µM)	relative viability ([3]; first compound 8 µM)	relative viability ([4]; first compound 0.08 µM)	relative viability ([4]; first compound 0.8 µM)	relative viability ([4]; first compound 2.53 µM)	relative viability ([4]; first compound 8 µM)
RERF-LC-KJ	0.851	0.779	0.928	0.675	0.852	0.506	0.526	0.452	0.493	0.307	1.08	0.92	0.749	1.08	0.92	0.989	0.865	1.19
NCI-H2085	0.922	1	1.02	1.06	1.12	0.754	0.899	0.935	0.743	0.382	1.36	1.18	1.09	1.2	0.91	0.934	0.892	1.17
NCI-H1793	0.719	0.645	0.637	0.827	0.791	0.488	0.335	0.372	0.264	0.18	0.649	0.366	0.333	0.442	0.581	0.553		0.536
HCC-366	0.55	0.361		0.296	0.244	0.0912	0.0518	0.0747	0.0418	0.0451	1.3	1.06	1.12	1.41	0.339		0.222	0.332
NCI-H596	0.4	0.494	0.467	0.468	0.443	0.768	0.827	0.956	0.886	0.848	1.3	1.11	0.83	1.23	1.23	1.13	0.98	1.25
NCI-H2126	0.74	0.794	0.708	0.75	0.731	0.899	0.815	0.951	0.859	0.866	0.949	0.835	0.856	0.86	1.14	1.03	0.917	1.14
EMC-BAC-2	0.802	0.698	0.887	0.759	0.594	0.294	0.335	0.381	0.349	0.362	1.24	1.14	1	1.72	1.18	1.04	1.28	1.26
H3255	0.782	0.773		0.671	0.903	0.863	0.613	0.915	0.62	0.487	0.542	0.513	0.458	0.674	0.858	0.915	0.797	1.05
NCI-H838	1.1	0.954	0.755	0.919	0.884	0.27	0.302	0.281	0.288	0.212	1.51	1.15	1.15	1.5	1.03	0.963	0.971	1.07
HCC-15	0.749	1.01		0.936	0.731	0.389	0.491	0.273	0.337	0.135	0.893	0.7	0.651	0.83	1.48	1.32	1.11	1.12
NCI-H1395		1.2	1.12	0.912	1.53	0.814	0.809	0.753	0.742	0.681	1.15	1.06	1.03	0.902	0.4	0.411	0.385	0.394
CAL-12T	1.28	1.13	1.25	0.952	1.06	0.343	0.366	0.288	0.292	0.182	1.48	1.11	1.27	1.37	0.773	0.541	0.694	0.648
BEN	0.772	1.22	1.12	1.01	1.29	0.511	0.498	0.444	0.471	0.383	0.0561	0.0673	0.0517	0.0548	0.691	0.729	0.648	0.797
NCI-H2405	0.709	0.745	0.884	0.998	0.902	0.5	0.637	0.539	0.529	0.457	0.801	0.829	0.781	0.88	1.04	0.666	0.68	0.817
NCI-H2087	1.18	1.02	0.95	0.743	0.858	0.251	0.174	0.19	0.204	0.132	1.3	1.04	1.01	1.13	1.41	1.45	1.39	1.75
NCI-H460	0.515	0.498	0.554	0.3	0.0919	0.449	0.186	0.146	0.382	0.053		1.05	0.978	1.91	0.806	0.675	0.534	0.585
NCI-H441	0.785	0.843	0.784	0.794	0.706	0.647	0.613	0.676	0.556	0.445	0.773	0.593	0.615	0.962	1.2	1.08	0.815	1.13
